The results in this text go back to patent publication US11492346B2, “Benzisoxazole sulfonamide derivatives” (Pfizer Inc., priority 2019, dated 2022).

Each structure is given as a SMILES string. Like-named read-outs stand apart in the source and are kept apart here.

Common to all, as to type: biochemical
One assay concerns the target KAT5 (Homo sapiens (Human), UniProt Q92993). Briefly: KAT assay (SAMDI mass spectrometry), KAT5.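 Further: Baculovirus-expressed KAT5 acetylating a histone H4 peptide at room temperature, read as percent conversion to product, Ki from a Morrison tight-binding competitive fit.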
The target of another assay is KAT8 (Homo sapiens (Human), UniProt Q9H7Z6). The experiment in a line: KAT assay (SAMDI mass spectrometry), KAT8.
Sequence of KAT8 (Q9H7Z6 whole entry): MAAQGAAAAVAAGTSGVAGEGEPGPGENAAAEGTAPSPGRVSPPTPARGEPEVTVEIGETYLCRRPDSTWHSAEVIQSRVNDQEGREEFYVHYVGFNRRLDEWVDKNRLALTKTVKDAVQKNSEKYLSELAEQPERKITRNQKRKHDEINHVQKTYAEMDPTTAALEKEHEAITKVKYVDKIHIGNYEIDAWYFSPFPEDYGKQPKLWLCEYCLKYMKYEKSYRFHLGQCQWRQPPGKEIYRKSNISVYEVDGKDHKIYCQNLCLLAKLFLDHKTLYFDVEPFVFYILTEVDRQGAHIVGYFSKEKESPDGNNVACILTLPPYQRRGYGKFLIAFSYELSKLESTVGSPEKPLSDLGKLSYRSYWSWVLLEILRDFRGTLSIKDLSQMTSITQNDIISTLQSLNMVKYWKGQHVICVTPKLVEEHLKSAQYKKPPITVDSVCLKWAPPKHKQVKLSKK
The next assay has as its target KAT6A (Homo sapiens (Human), UniProt Q92794). The experiment in a line: KAT assay (SAMDI mass spectrometry), KAT6A.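 Further: Baculovirus-expressed KAT6A acetylating histone H3 (1-21) peptide (2 µM), 30-60 min at room temperature, % product conversion fitted to Morrison equation for tight-binding competitive inhibitors.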
A further assay has as its target KAT6B (Homo sapiens (Human), UniProt Q8WYB5). Briefly: KAT assay (SAMDI mass spectrometry), KAT6B.
The target in a further assay is KAT7 (Homo sapiens (Human), UniProt O95251). Briefly: KAT assay (SAMDI mass spectrometry), KAT7.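 Further: Baculovirus-expressed enzyme acetylating a histone peptide at room temperature, percent conversion from product and substrate peak areas, Ki from a Morrison tight-binding competitive fit.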
Sequence of KAT7 (O95251 whole entry): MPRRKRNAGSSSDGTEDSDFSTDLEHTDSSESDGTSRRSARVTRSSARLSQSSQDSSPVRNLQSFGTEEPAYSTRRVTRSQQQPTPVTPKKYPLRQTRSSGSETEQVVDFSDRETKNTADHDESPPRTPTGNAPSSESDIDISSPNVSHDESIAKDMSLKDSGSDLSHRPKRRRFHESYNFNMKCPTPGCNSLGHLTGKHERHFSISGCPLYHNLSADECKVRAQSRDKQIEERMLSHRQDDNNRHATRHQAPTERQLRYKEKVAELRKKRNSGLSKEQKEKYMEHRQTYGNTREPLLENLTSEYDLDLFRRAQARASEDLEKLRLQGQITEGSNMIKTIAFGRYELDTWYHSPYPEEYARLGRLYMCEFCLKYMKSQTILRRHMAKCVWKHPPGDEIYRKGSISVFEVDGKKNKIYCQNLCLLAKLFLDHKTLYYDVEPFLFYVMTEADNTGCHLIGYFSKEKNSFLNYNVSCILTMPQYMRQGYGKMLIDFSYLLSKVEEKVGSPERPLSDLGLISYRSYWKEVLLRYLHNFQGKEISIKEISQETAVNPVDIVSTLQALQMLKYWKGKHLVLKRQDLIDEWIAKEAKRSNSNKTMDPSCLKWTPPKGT
The mark [1] stands for this setting: read-out: KAT5 Ki at 1 μM AcCoA.
[2] abbreviates: read-out: KAT8 Ki at 1 μM AcCoA.
Where [3] appears, read: read-out: KAT6a Ki at 1 μM AcCoA, 1 μM AcCoA.
[4] abbreviates: read-out: KAT6a Ki at 10 μM AcCoA, 10 μM AcCoA.
Setting [5] is: read-out: KAT6b Ki at 1 μM AcCoA, 1 μM AcCoA.
The mark [6] stands for this setting: read-out: KAT7 Ki at 1 μM AcCoA.
[7] abbreviates: 25 μM AcCoA, read-out: KAT6b Ki at 25 μM AcCoA.

Sequence of KAT6A (Q92794 whole entry): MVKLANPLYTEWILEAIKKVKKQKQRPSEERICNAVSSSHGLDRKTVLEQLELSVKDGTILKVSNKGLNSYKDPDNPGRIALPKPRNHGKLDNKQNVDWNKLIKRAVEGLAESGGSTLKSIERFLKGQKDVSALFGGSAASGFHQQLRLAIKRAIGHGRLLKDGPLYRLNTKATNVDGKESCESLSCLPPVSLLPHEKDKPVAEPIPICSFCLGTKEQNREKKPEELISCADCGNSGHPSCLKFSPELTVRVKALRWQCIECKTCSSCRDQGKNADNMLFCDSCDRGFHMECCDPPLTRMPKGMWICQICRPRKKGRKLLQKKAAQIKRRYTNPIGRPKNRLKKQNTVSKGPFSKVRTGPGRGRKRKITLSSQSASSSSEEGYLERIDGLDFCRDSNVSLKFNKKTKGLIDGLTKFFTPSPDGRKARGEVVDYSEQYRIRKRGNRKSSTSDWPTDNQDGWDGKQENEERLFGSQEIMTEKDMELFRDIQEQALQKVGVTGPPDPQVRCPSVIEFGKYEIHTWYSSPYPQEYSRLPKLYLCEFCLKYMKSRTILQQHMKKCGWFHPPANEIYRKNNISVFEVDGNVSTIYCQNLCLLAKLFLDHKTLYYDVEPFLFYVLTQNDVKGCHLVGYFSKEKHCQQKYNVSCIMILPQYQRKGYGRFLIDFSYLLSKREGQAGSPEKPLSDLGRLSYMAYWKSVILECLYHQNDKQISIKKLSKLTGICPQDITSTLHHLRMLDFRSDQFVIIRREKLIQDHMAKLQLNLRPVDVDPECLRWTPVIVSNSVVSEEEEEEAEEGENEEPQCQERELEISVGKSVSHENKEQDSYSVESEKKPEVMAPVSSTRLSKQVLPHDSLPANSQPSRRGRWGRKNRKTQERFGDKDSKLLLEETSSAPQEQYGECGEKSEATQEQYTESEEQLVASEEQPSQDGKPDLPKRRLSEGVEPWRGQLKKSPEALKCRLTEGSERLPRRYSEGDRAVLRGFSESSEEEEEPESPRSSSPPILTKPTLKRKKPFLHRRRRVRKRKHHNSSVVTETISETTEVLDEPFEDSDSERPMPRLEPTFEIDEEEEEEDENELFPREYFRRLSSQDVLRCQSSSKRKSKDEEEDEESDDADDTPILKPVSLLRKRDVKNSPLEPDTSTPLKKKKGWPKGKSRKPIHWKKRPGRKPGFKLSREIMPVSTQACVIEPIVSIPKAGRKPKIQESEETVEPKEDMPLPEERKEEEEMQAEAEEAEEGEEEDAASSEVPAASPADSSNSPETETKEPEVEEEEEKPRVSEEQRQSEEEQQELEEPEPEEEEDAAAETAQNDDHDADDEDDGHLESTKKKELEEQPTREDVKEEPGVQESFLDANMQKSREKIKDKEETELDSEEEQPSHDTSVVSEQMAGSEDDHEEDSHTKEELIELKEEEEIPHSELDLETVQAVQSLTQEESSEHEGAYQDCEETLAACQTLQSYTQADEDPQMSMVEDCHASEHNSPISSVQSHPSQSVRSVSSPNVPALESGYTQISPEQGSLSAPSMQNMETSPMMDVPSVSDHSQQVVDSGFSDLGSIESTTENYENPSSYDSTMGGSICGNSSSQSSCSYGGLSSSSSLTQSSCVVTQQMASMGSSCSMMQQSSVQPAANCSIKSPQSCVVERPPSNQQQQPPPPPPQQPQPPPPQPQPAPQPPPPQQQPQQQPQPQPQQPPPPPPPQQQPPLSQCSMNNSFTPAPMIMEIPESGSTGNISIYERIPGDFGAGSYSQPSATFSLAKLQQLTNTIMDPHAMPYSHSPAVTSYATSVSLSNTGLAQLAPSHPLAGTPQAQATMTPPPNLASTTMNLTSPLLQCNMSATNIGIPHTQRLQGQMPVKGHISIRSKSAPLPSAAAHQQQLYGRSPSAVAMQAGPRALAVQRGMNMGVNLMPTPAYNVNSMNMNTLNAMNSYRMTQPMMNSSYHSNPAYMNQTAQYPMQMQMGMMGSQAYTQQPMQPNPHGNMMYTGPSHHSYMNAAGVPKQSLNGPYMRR
Sequence of KAT6B (Q8WYB5 whole entry): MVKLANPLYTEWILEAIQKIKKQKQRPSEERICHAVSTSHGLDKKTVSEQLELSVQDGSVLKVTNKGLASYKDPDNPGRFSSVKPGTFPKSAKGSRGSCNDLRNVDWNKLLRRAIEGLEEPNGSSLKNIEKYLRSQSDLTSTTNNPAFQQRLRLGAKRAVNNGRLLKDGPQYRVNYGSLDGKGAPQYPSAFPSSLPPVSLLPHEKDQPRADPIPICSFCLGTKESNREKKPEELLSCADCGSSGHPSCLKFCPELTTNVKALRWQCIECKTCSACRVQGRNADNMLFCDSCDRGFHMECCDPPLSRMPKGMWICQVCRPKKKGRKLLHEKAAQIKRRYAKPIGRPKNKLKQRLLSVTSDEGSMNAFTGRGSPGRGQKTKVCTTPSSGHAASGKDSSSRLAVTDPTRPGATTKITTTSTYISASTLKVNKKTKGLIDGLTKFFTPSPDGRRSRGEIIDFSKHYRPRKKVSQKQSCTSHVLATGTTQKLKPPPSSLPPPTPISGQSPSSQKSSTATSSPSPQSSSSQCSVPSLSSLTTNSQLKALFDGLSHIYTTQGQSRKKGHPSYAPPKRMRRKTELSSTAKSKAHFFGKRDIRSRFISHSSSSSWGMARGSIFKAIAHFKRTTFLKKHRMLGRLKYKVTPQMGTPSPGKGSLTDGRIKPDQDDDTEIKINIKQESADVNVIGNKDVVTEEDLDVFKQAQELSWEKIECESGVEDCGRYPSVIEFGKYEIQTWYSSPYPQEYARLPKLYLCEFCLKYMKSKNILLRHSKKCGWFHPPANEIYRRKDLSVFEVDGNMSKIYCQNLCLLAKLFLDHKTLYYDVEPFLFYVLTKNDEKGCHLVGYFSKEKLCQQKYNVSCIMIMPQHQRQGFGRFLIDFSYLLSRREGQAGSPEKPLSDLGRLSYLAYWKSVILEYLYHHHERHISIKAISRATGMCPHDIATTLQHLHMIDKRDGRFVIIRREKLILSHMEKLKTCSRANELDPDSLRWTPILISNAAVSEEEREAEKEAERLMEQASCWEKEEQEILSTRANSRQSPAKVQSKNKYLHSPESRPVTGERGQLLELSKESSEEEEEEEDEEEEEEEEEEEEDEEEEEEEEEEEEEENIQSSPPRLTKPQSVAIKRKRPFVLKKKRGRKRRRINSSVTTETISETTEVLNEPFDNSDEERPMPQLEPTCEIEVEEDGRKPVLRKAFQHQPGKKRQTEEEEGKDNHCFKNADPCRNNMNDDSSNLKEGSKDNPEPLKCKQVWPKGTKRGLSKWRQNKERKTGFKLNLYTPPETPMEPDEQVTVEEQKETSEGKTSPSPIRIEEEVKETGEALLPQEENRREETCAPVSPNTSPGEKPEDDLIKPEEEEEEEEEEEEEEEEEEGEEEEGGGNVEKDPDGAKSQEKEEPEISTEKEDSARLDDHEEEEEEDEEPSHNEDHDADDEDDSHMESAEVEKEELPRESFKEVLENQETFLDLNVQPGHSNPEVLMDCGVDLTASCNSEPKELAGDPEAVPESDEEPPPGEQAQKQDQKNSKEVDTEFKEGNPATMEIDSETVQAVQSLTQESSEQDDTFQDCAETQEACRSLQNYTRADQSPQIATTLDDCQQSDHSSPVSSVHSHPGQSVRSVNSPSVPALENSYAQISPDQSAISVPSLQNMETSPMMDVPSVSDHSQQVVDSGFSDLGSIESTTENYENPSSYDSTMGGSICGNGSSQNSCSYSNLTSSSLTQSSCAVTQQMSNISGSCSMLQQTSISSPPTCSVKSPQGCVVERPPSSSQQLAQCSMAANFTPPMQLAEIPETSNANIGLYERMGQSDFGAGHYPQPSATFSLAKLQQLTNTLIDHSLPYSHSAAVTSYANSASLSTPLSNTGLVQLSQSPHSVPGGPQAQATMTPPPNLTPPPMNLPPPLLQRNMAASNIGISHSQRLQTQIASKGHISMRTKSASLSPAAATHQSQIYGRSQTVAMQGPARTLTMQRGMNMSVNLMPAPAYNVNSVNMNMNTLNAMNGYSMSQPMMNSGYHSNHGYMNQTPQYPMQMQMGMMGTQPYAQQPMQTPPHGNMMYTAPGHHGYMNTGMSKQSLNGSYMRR
Procedure for KAT5: (§1) Prepare 10 mM stock solutions in 100% DMSO from solid material • 2. Serial dilute 10 mM, 1 mM or 0.1 mM compound stocks 3-fold in 100% DMSO for 11-point dose response
(§2) Prepare 1× assay buffer containing 10 mM Tris HCL pH 8.0, 2.5 mM NaCl, 0.5 mM EDTA, 0.005% BSG and 0.02% Tween-20 • 2. Dilute Histone peptide (CPC Scientific) and AcCoA (Sigma) together in assay buffer to 2×. • 3. Dilute KAT enzyme in assay buffer to 2×.
(§3) Enzyme reaction • 1. Final reaction conditions for each KAT assay in a 20 ul assay reaction volume: • i. KAT5 25 nM, 1 uM AcCoA, 2 uM H4 1-21 peptide, 30-minute reaction • ii. KAT6A 15 nM, 1 uM AcCoA, 2 uM H3 1-21 peptide, 45-minute reaction • iii. KAT6B 25 nM, 1 uM AcCoA, 2 uM H3 1-21 peptide, 60-minute reaction • iv. KAT7 12.5 nM, 1 uM AcCoA, 2 uM H3 1-21 peptide, 45-minute reaction • v. KAT8 15 nM, 1 uM AcCoA, 2 uM H3 1-21 peptide, 45-minute reaction • 2. Add 0.5 ul of diluted compound to the assay plate (384-well V-bottom polypropylene plates) or 0.5 ul of DMSO for control wells. • 3. Add 10 ul of 2× Histone peptide/2×AcCoA mix to the assay plate. • 4. Add 10 ul of 2× enzyme to the assay plate. • 5. Stop the reaction after the indicated time with the addition of 2 ul of 5% formic acid • 6. Each reaction was analyzed using self-assembled monolayer desorption/ionization time-of-flight mass spectrometry (Mrksich, Milan (2008) Mass Spectrometry of Self-Assembled Monolayers: A New Tool for Molecular Surface Science ACS Nano 2008 2 (1), 7-18; SAMDI Tech, Inc. (Chicago, Ill.)). • 7. Area under the curve (AUC) for both substrate and product peaks was determined for KAT5 at M.W. 2561 [Substrate+H]^+ and 2603 [Product+H]^+ with a +/−1 Da tolerance, respectively • 8. Area under the curve (AUC) for both substrate and product peaks was determined for KAT6a, KAT6B, KAT7 and KAT8 at M.W. 2723 [Substrate+H]^+ and 2765 [Product+H]^+ with a +/−1 Da tolerance, respectively. […] Percent conversion to product was calculated by: AUCProduct/(AUCsubstrate+AUCProduct).
(§4) IC50 values were determined by fitting the % conversion at each inhibitor concentration to the 4-parameter IC50 equation using Pfizer proprietary curve fitting software. • 2. Ki values were determined by fitting the % conversion at each inhibitor concentration to the Morrison equation for tightbinding competitive inhibitors using Pfizer proprietary curve fitting software.
(§5) KAT enzymes were expressed using a baculovirus expression system and purified at Pfizer, La Jolla. […] Acetyl coenzyme A was purchased from Sigma-Aldrich (St. Louis, Mo.). All other biochemical reagents were purchased from Sigma-Aldrich or ThermoFisher Scientific (Waltham, Mass.).
(§6) KAT assays were performed at room temperature in assay buffer containing 1 μM AcCoA, 2 μM histone peptide, 10 mM Tris HCL pH 8.0, 2.5 mM NaCl, 0.5 mM EDTA, 0.005% BSG and 0.02% Tween-20. 10 ul of 2× Histone peptide/AcCoA mix was added to a 384-well V-bottom polypropylene assay plate containing 0.5 ul of serially diluted test compound in 100% dimethyl sulfoxide (DMSO). To start the reaction, 10 ul of 2× enzyme solution was added to the assay plate. KAT assays were terminated after 30-60 minutes with the addition of 2 ul of 5% formic acid. All assays used histone H3 (1-21) peptide except for the KAT5 assay which used histone H4 (1-21) peptide. The final enzyme concentration for each KAT was as follows: KAT5, 25 nM; KAT6A, 15 nM; KAT6B, 25 nM; KAT7, 12.5 nM; KAT8 15 nM. Each reaction was analyzed using self-assembled monolayer desorption/ionization time-of-flight mass spectrometry (Mrksich, Milan (2008) Mass Spectrometry of Self-Assembled Monolayers: A New Tool for Molecular Surface Science ACS Nano 2008 2 (1), 7-18; SAMDI Tech, Inc. (Chicago, Ill.)).
(§7) Area under the curve (AUC) for both substrate and product peaks was determined for KAT5 at M.W. 2561 [Substrate+H]^+ and 2603 [Product+H]^+ with a +/−1 Da tolerance, respectively.
Procedure for KAT6A: as §1, §2, §3, §4, §5, §6, §7
Procedure for KAT6B: as §1, §2, §3, §4, §5, §6, §7
Procedure for KAT8: as §1, §2, §3, §4, §5, §6, §7

As a reminder, the Ki is a dissociation constant, usually derived from enzyme kinetics or from competition with a known ligand. As for `COc1cccc(F)c1S(=O)(=O)Nc1noc2cc(Cn3cccn3)cc(OC)c12` [Example 6], the Ki on KAT5 (setting [1]) worked out at 980 nM; on KAT8 (setting [2]), 3320 nM; on KAT6A (setting [3]) it was 1.5 nM; at KAT6A (setting [4]), 2.32 nM; at KAT6B (setting [5]) it was 2.5 nM; at KAT7 (setting [6]), 120 nM.

As for `COc1ccccc1S(=O)(=O)Nc1noc2cc(Cn3cccn3)cc(OC)c12` [Example 45, 2-methoxy-N-{4-methoxy-6-[(1H-pyrazol-1-yl)methyl]-1,2-benzoxazol-3-yl}benzene-1-sulfonamide], the Ki on KAT5 (1 μM AcCoA) came to 320 nM; at KAT8 (1 μM AcCoA), 900 nM; on KAT6A (KAT6a Ki at 1 μM AcCoA, 1 μM AcCoA), 2.28 nM; on KAT6B (setting [7]), 1.55 nM; at KAT6B (KAT6b Ki at 1 μM AcCoA, 1 μM AcCoA), 2.11 nM; on KAT7 (KAT7 Ki at 1 μM AcCoA) it was 90 nM.

As to `COc1ccc(S(=O)(=O)Nc2noc3cc(Cn4cccn4)cc(OC)c23)cc1C` [Example 84], the Ki is 4630 nM on KAT5 (setting [1]); 12500 nM on KAT8 (setting [2]); 7.86 nM on KAT6A (setting [3]); 5.61 nM on KAT6A (setting [4]); 12.3 nM on KAT6B (setting [7]); 190 nM at KAT7 (setting [6]).

With `COc1cc(Cn2cccn2)cc2onc(NS(=O)(=O)c3ccc(C)c(C)c3)c12` [Example 72], the inhibitory constant (Ki) at KAT5 (setting [1]) was 2960 nM; at KAT8 (setting [2]), 12500 nM; on KAT6A (setting [3]) it was 2.86 nM; on KAT6A (setting [4]), 2.36 nM; on KAT6B (setting [7]), 6.97 nM; at KAT7 (setting [6]), 140 nM.

Regarding `COc1cccc(OC)c1S(=O)(=O)Nc1noc2cc(Cn3cccn3)cc(OC(C)C)c12` [Example 10], the Ki at KAT5 (setting [1]) came to 60200 nM; at KAT8 (setting [2]), 19400 nM; on KAT6A (setting [3]), 2.72 nM; on KAT6A (setting [4]), 4.65 nM; at KAT6B (setting [5]) it was 2.27 nM; at KAT7 (setting [6]), 9320 nM.

As for `CCc1cc(Cn2cccn2)cc2onc(NS(=O)(=O)c3c(OC)cccc3OC)c12` [Example 95, N-{4-ethyl-6-[(1H-pyrazol-1-yl)methyl]-1,2-benzoxazol-3-yl}-2,6-dimethoxybenzene-1-sulfonamide], the Ki on KAT5 (setting [1]) turned out to be 12500 nM; on KAT8 (setting [2]), 3260 nM; on KAT6A (setting [3]), 9.88 nM; on KAT6B (setting [7]), 8.35 nM; on KAT7 (setting [6]), 4340 nM.

Consider `COc1cccc(OC)c1S(=O)(=O)Nc1noc2cc(Cn3cccn3)c(Br)cc12` [Example 92, N-{5-bromo-6-[(1H-pyrazol-1-yl)methyl]-1,2-benzoxazol-3-yl}-2,6-dimethoxybenzene-1-sulfonamide], for which the Ki on KAT5 (setting [1]) was 110 nM; on KAT8 (setting [2]), 240 nM; on KAT6A (setting [3]), 1.07 nM; at KAT6A (setting [4]), 0.45 nM; at KAT6B (setting [7]) it was 2.73 nM; on KAT7 (setting [6]) it was 30 nM.

As to `COc1cc(C)ccc1S(=O)(=O)Nc1noc2cc(Cn3cccn3)cc(OC)c12` [Example 47], the inhibition constant (Ki) was 180 nM at KAT5 (setting [1]); 560 nM on KAT8 (setting [2]); 1.14 nM on KAT6A (setting [3]); 0.49 nM on KAT6A (setting [4]); 1.32 nM on KAT6B (setting [7]); 40 nM on KAT7 (setting [6]).

Regarding `COc1cccc(OC)c1S(=O)(=O)Nc1noc2cc(Cn3cc(F)cn3)cc(OC)c12` [Example 7], the Ki at KAT5 (setting [1]) came out at 4530 nM; at KAT8 (setting [2]), 4460 nM; at KAT6A (setting [3]) it was 21 nM; on KAT6B (setting [5]) it was 28.3 nM; at KAT7 (setting [6]), 230 nM.

On to `COc1cc(Cn2cccn2)cc2onc(NS(=O)(=O)c3ccc(C)cc3F)c12` [Example 65], for which the Ki at KAT5 (setting [1]) came out at 3060 nM; at KAT8 (setting [2]) it was 12500 nM; on KAT6A (setting [3]), 6.04 nM; on KAT6A (setting [4]), 4.44 nM; on KAT6B (setting [7]) it was 12.1 nM; on KAT7 (setting [6]), 220 nM.

Consider `COc1cc(Cn2cccn2)cc2onc(NS(=O)(=O)c3cccc(C)c3C#N)c12` [Example 76], for which the Ki is 4380 nM at KAT5 (setting [1]); 12500 nM at KAT8 (setting [2]); 7.89 nM on KAT6A (setting [3]); 3.62 nM on KAT6A (setting [4]); 60.1 nM at KAT6B (setting [7]); 330 nM at KAT7 (setting [6]).

On to `COc1cc(Cn2cccn2)cc2onc(NS(=O)(=O)c3c(C)ccc4cccnc34)c12` [Example 73], for which the Ki on KAT5 (setting [1]) worked out at 710 nM; on KAT8 (setting [2]), 3260 nM; on KAT6A (setting [3]), 2.31 nM; at KAT6A (setting [4]), 1.7 nM; on KAT6B (setting [7]), 1.36 nM; at KAT7 (setting [6]), 250 nM.

`COc1ccc(S(=O)(=O)Nc2noc3cc(Cn4cccn4)cc(OC)c23)c(OC)c1` [Example 5]: the Ki at KAT5 (setting [1]) worked out at 530 nM; at KAT8 (setting [2]) it was 660 nM; on KAT6A (setting [3]), 1.11 nM; at KAT6A (setting [4]), 1.38 nM; at KAT6B (setting [5]), 2.68 nM; on KAT7 (setting [6]), 80 nM.

On to `COc1cc(Cn2cccn2)cc2onc(NS(=O)(=O)c3cccc4c(C)ccnc34)c12` [Example 61], for which the Ki at KAT5 (setting [1]) was found to be 200 nM; on KAT8 (setting [2]), 540 nM; on KAT6A (setting [3]), 0.95 nM; at KAT6A (setting [4]) it was 0.92 nM; at KAT6B (setting [7]) it was 1.56 nM; at KAT7 (setting [6]), 40 nM.

Regarding `COc1cc(Cn2cccn2)cc2onc(NS(=O)(=O)c3cc(C)cc(F)c3)c12` [Example 75], the Ki on KAT5 (setting [1]) was 5700 nM; on KAT8 (setting [2]) it was 12500 nM; on KAT6A (setting [3]), 9.13 nM; at KAT6A (setting [4]), 6.42 nM; on KAT6B (setting [7]) it was 13.8 nM; on KAT7 (setting [6]) it was 320 nM.

As to `COc1ccc(C)cc1S(=O)(=O)Nc1noc2cc(Cn3cccn3)cc(OC)c12` [Example 17], the Ki on KAT5 (setting [1]) worked out at 150 nM; at KAT8 (setting [2]), 220 nM; on KAT6A (setting [3]), 0.7 nM; at KAT6A (setting [4]) it was 0.51 nM; at KAT6B (setting [7]) it was 1.21 nM; at KAT7 (setting [6]) it was 90 nM.

Turning to `COc1cccc(OC)c1S(=O)(=O)Nc1noc2cc(Cn3nccn3)cc(OC)c12` [Example 23], the Ki on KAT5 (setting [1]) is 2070 nM; on KAT8 (setting [2]) it was 1970 nM; at KAT6A (setting [3]), 1.22 nM; at KAT6A (setting [4]), 1.24 nM; at KAT6B (setting [7]), 1.34 nM; at KAT6B (setting [5]), 0.87 nM. Further, at KAT7 (setting [6]), the Ki was determined as 40 nM.

In the case of `CCOc1cc(C)ccc1S(=O)(=O)Nc1noc2cc(Cn3cccn3)cc(OC)c12` [Example 50], the Ki on KAT5 (setting [1]) is 260 nM; at KAT8 (setting [2]), 350 nM; on KAT6A (setting [3]), 0.46 nM; on KAT6A (setting [4]), 0.4 nM; at KAT6B (setting [7]), 0.98 nM; at KAT7 (setting [6]), 20 nM.

Consider `COc1cccc(OC)c1S(=O)(=O)Nc1noc2cc(Cn3nccc3C)cc(OC)c12` [Example 3, 2,6-dimethoxy-N-{4-methoxy-6-[(5-methyl-1H-pyrazol-1-yl)methyl]-1,2-benzoxazol-3-yl}benzene-1-sulfonamide], for which the Ki at KAT5 (setting [1]) was 9790 nM; at KAT8 (setting [2]), 17400 nM; at KAT6A (setting [3]) it was 3.79 nM; on KAT6A (setting [4]), 1.54 nM; at KAT6B (setting [5]) it was 8.63 nM; at KAT7 (setting [6]), 1720 nM.

As for `COc1cccc(OC)c1S(=O)(=O)Nc1noc2cc(Cn3cccn3)cc(OC3CC3)c12` [Example 11], the Ki at KAT5 (setting [1]) was found to be 12500 nM; on KAT8 (setting [2]) it was 3260 nM; at KAT6A (setting [3]) it was 2.86 nM; on KAT6A (setting [4]), 5.57 nM; on KAT6B (setting [5]), 14.6 nM; on KAT7 (setting [6]) it was 5960 nM.

As to `COc1cccc(OC)c1S(=O)(=O)Nc1noc2cc(Cn3cc(CO)cn3)cc(OC)c12` [Example 87, N-(6-{[4-(hydroxymethyl)-1H-pyrazol-1-yl]methyl}-4-methoxy-1,2-benzoxazol-3-yl)-2,6-dimethoxybenzene-1-sulfonamide], the Ki was 10800 nM on KAT5 (setting [1]); 17900 nM on KAT8 (setting [2]); 38.6 nM at KAT6A (setting [3]); 133 nM on KAT6B (setting [5]); 1840 nM at KAT7 (setting [6]).

Regarding `COc1cccc(OC)c1S(=O)(=O)Nc1noc2cc(Cn3cccn3)ccc12` [Example 28], the Ki amounted to 3050 nM on KAT5 (setting [1]); 3260 nM at KAT8 (setting [2]); 4.4 nM at KAT6A (setting [3]); 5.06 nM at KAT6B (setting [7]); 450 nM on KAT7 (setting [6]).

With `COc1ccc(OC)c(S(=O)(=O)Nc2noc3cc(Cn4cccn4)cc(OC)c23)c1` [Example 19], the Ki on KAT5 (setting [1]) was determined as 800 nM; on KAT8 (setting [2]), 960 nM; at KAT6A (setting [3]) it was 2.18 nM; on KAT6B (setting [7]) it was 3.44 nM; at KAT7 (setting [6]) it was 150 nM.

Consider `COc1cc(Cn2cccn2)cc2onc(NS(=O)(=O)c3ccc(C)c(F)c3)c12` [Example 79], for which the Ki stood at 1440 nM on KAT5 (setting [1]); 3260 nM at KAT8 (setting [2]); 5.11 nM at KAT6A (setting [3]); 4.98 nM at KAT6A (setting [4]); 4.27 nM at KAT6B (setting [7]); 220 nM at KAT7 (setting [6]).

Take `COc1ccc(OC(F)(F)F)cc1S(=O)(=O)Nc1noc2cc(Cn3cccn3)cc(OC)c12` [Example 16]: the Ki at KAT5 (setting [1]) worked out at 830 nM; at KAT8 (setting [2]), 1750 nM; on KAT6A (setting [3]) it was 1.27 nM; at KAT6A (setting [4]) it was 0.64 nM; at KAT6B (setting [7]), 1.73 nM; at KAT7 (setting [6]), 120 nM.

With `CCOc1cc(Cn2cccn2)cc2onc(NS(=O)(=O)c3c(OC)cccc3OC)c12` [Example 25], the Ki is 12500 nM at KAT5 (setting [1]); 12500 nM on KAT8 (setting [2]); 2.74 nM on KAT6A (setting [3]); 1.83 nM on KAT6A (setting [4]); 4.46 nM at KAT6B (setting [7]); 1080 nM on KAT7 (setting [6]).
